This is an account of results in patent US20240158369A1, “PYRIMIDINE COMPOUND AS WEE-1 INHIBITOR” (WIGEN BIOMEDICINE TECHNOLOGY (SHANGHAI) CO., LTD., priority 2021, published 2024).

Assay [1] concerns the target recombinant protein Wee-1 (Homo sapiens (Human), UniProt P30291). Nature of the assay: HTRF assay for inhibiting enzymatic activity of recombinant protein Wee-1. Format: biochemical. Conditions: compounds up to 200 nM, read-out: (IC50) Inhibitory activity against recombinant protein Wee-1. The essentials:
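Compound (up to 200 nM, 1:5 series) preincubated with Wee-1 in kinase buffer 30 min at 37° C; Fluorescein-PolyGAT and ATP then added, reaction run 90 min at room temperature. Antibody detection 60 min; 520/495 nm ratio versus DMSO gave % inhibition and IC50.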
For orientation: In TR-FRET formats the signal depends on donor and acceptor labels being close together.

The test system of assay [2] is MIA PaCa-2 cells. Kind of assay: In-vitro anti-proliferative activity on MIA PaCa-2 cells (intracellular ATP content, 72 h). Format: cell-based. Conditions: Homo sapiens, compound alone, read-out: IC50 (nM) antiproliferative activity against MIA PaCa-2 cells. As to the method:
MIA PaCa-2 cells were seeded on a 384-well plate at 3000 cells/well. After overnight adherence culture, DMSO or the compounds serially 1:5-diluted from 5 μM were added. The viability was assessed 72 h after dosing by measuring the intracellular ATP content. The inhibition percentage of viable cells by the compounds was calculated by comparing with the DMSO group, and the IC50 value was calculated.

Assay [3] relates to MIA PaCa-2 cells. Nature of the assay: In-vitro anti-proliferative activity in combination with gemcitabine on MIA PaCa-2 cells. Conditions: 72 h. The assay is classed as cell-based. Here is the method:
MIA PaCa-2 cells were seeded on a 384-well plate at 3000 cells/well, and 20 nM or 200 nM gemcitabine (GMC) was added. After overnight adherence culture, DMSO or the compounds serially 1:5-diluted from 100 nM were added. The viability was assessed 72 h after dosing by measuring the intracellular ATP content. The inhibition percentage of viable cells by the compounds was calculated by comparing with the DMSO group, and the IC50 value was calculated.

Assay [4] relates to HT29 subcutaneous xenograft tumor. Nature of the assay: Mouse HT29 subcutaneous xenograft tumor model (Example 165), with 30 mg/kg gemcitabine. The assay is classed as in vivo. Here is the method:
HT29 is a colon cancer cell. Each nude mouse was grafted subcutaneously with 5×10^6HT29 cells. When the tumor grew to 100-200 mm^3, the compound was administered orally once a day in combination with 30 mg/kg of gemcitabine injected intraperitoneally once a week, and the tumor volume was measured twice a week and at the end of treatment. Tumor growth inhibition of the compound was calculated according to the following equation: tumor growth inhibition (TGI)=1−(tumor volume on day 20 in treatment group−tumor volume on day 1 in treatment group)/(tumor volume on day 20 in vehicle control group−tumor volume on day 1 in treatment group).

For assay [5] the test system is unchanged. Nature of the assay: Mouse HT29 subcutaneous xenograft tumor model (Example 164), alone or with 15 mg/kg gemcitabine. The assay is classed as in vivo. Conditions: gemcitabine alone 15 mg/kg intraperitoneally once a week. As to the method:
HT29 is a colon cancer cell. Each nude mouse was grafted subcutaneously with 5×10^6HT29 cells. When the tumor grew to 100-200 mm^3, the compound was administered orally once a day alone or in combination with 15 mg/kg of gemcitabine injected intraperitoneally once a week, and the tumor volume was measured twice a week and at the end of treatment. Tumor growth inhibition of the compound was calculated according to the following equation: tumor growth inhibition (TGI)=1−(tumor volume on day 20 in treatment group−tumor volume on day 1 in treatment group)/(tumor volume on day 20 in vehicle control group−tumor volume on day 1 in treatment group).

Where [6] appears, read: with 20 nM gemcitabine, read-out: in combination with 20 nM GMC IC50.
The mark [7] stands for this setting: 30 mg/kg orally once a day in combination with 30 mg/kg of gemcitabine ip once a week.
[8] abbreviates: 30 mg/kg orally once a day in combination with 30 mg/kg of gemcitabine ip once a week, day 20.

Chain of recombinant protein Wee-1 (P30291 whole entry): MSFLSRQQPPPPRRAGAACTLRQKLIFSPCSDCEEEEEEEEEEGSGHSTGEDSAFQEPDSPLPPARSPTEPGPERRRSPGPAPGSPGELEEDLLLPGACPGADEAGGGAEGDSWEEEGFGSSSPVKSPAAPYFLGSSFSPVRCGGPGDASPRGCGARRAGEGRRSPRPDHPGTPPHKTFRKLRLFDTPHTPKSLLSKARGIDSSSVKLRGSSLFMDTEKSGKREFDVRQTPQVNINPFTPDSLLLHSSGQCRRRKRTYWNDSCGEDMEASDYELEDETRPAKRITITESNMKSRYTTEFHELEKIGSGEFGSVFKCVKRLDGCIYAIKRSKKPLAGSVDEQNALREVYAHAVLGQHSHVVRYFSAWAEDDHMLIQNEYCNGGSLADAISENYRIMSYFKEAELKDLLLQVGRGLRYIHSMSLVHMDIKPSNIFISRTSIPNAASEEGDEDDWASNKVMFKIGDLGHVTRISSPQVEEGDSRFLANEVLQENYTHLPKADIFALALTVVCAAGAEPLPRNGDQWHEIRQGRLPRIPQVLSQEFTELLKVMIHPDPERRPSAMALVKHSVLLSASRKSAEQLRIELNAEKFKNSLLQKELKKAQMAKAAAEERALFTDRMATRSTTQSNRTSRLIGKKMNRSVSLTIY

Turning to `CN1CCc2ccc(Nc3ncc(C#N)c(Nc4cccc(N=S(C)(C)=O)n4)n3)cc2C1` [Compound 1], the IC50 (commonly the midpoint of a concentration-inhibition curve) in assay [1] is no more than 10 nM; with MIA PaCa-2 cells [2], 735 nM; with MIA PaCa-2 cells [3] (setting [6]), 4.6 nM.

As for `CN1CCc2ccc(Nc3ncc(C(F)(F)F)c(Nc4cccc(N=S(C)(C)=O)n4)n3)cc2C1` [Compound 2], the IC50 was greater than 50 nM in assay [1], 398 nM with MIA PaCa-2 cells [2] and 30 nM in the assay with MIA PaCa-2 cells [3] (setting [6]).

`CN1CCc2ccc(Nc3ncc(C4CC4)c(Nc4cccc(N=S(C)(C)=O)n4)n3)cc2C1` [Compound 3]: the IC50 in assay [1] was greater than 50 nM; with MIA PaCa-2 cells [2] it was 879 nM; with MIA PaCa-2 cells [3] (with 200 nM gemcitabine, read-out: in combination with 200 nM GMC IC50), greater than 100 nM.

For the compound `CN1CCc2ccc(Nc3ncc(P(C)(C)=O)c(Nc4cccc(N=S(C)(C)=O)n4)n3)cc2C1` [Compound 4], the IC50 was greater than 50 nM in assay [1], greater than 5000 nM in the assay with MIA PaCa-2 cells [2] and greater than 100 nM in the assay on MIA PaCa-2 cells [3] (setting [6]).

Consider `CN1CCc2c(cc(Nc3ncc(C#N)c(Nc4cccc(N=S(C)(C)=O)n4)n3)cc2C2(C)CC2)C1` [Compound 101], for which the IC50 is no more than 10 nM in assay [1] and 4.4 nM with MIA PaCa-2 cells [3] (setting [6]). The “Tumor volume on day 20 of treatment (mm^3)” value in assay [4] (setting [7]) is recorded as 95 mm^3. For the same compound, the TGI in assay [4] (setting [8]) came to 102%.

`CN1CCc2c(cc(Nc3ncc(C#N)c(Nc4cccc(N=S(C)(C)=O)n4)n3)cc2C2CCOCC2)C1` [Compound 117]: the IC50 was no more than 10 nM in assay [1] and 1.5 nM with MIA PaCa-2 cells [3] (setting [6]). The “Tumor volume on day 20 of treatment (mm^3)” value in assay [4] (setting [7]) is 283 mm^3. The TGI in assay [4] (setting [8]) is given as 87%.

With `COCCCc1cc(Nc2ncc(C#N)c(Nc3cccc(N=S(C)(C)=O)n3)n2)cc2c1CCN(C)C2` [Compound 128], the figures for the IC50 (in assay [1]; in the assay on MIA PaCa-2 cells [3] (setting [6])) were no more than 10 nM and 2.5 nM, respectively. Moreover, in assay [4] (setting [7]), the “Tumor volume on day 20 of treatment (mm^3)” value is 284 mm^3. In assay [4] (setting [8]), the TGI came out at 87%.

In the case of `Nc1ccn([C@@H]2O[C@H](CO)[C@@H](O)C2(F)F)c(=O)n1` [Gemcitabine, gemcitabine, reference compound], in assay [5] (day 1), the “Tumor volume on day 1 of treatment (mm^3)” value is reported as 102 mm^3. Also, in assay [5] (day 20), the TGI is on record as 54% and the “Tumor volume on day 20 of treatment (mm^3)” value is 550 mm^3. In addition, in assay [4] (Mus musculus, HT-29, ip, 480 h, gemcitabine alone 30 mg/kg intraperitoneally once a week, day 20, read-out: TGI), the inhibition in vivo at 30 mg/kg came out at 60%. Besides, the “Tumor volume on day 20 of treatment (mm^3)” value in assay [4] (gemcitabine alone 30 mg/kg intraperitoneally once a week) turned out to be 653 mm^3.
